Measurements as given in patent US20090018194A1, “Use of antimicrobial agents derived from alliaceous plants for the prevention and control of crop diseases, post-harvest rot and as environmental disinifectant products” (DMC Research Center, S.L., priority 2007, published 2009).

Tests used:
Botrytis cinerea = experiment: field control of Botrytis in strawberries, foliar spraying; format: in vivo; details: after 12 days
[1] = tested on: Aspergillus niger CECT 2700; experiment: agar diffusion test with impregnated cellulose discs; format: cell-based; details: incl. 6 mm disc
[2] = tested on: Bacillus megaterium ATCC 33085; experiment: as above; format: cell-based; details: incl. 6 mm disc
[3] = tested on: Penicillium digitatum Wild strain Supplied by UdL-IRTA; experiment: agar diffusion test, wild phytopathogens isolated from citrus rot; format: cell-based; details: incl. 6 mm disc
[4] = tested on: Phytophthora citrophthora; experiment: post-harvest rotting of inoculated oranges (Navelina), immersion treatment; format: in vivo
Procedure: (§1) This example considers the effectiveness of the active natural principles PTS and PTSO in two different doses for the control of post-harvest rotting of oranges ([…] variety), caused by controlled artificial inoculation with the fungi Penicillium digitatum, Penicillium expansum, Phytophthora citrophthora and Geotrichum candidum, the principal pathogens of this fruit. The inoculation of the oranges was carried out with suspensions of spores of the different wild fungal strains selected, according to the methodology described below. The first step was the isolation and identification of the fungal strains used in the study. The strains of filamentous fungi used in these tests (Penicillium digitatum, Penicillium italicum and Phytophthora citrophthora) were isolated from oranges affected by rot. In these isolation processes, it was not possible to detect any strain belonging to Geotrichum candidum, as a result of which it was necessary to obtain the latter substance from the Spanish Collection of Standard Cultures, where it is identified by reference CECT 1102. […] To promote the implantation of the inoculum of Geotrichum candidum, 200 ppm of cyclohexamide was added to the inoculum prior to its inoculation. […] The assessment of the effectiveness of PTS and PTSO comprised counting of the number of fruits affected by rot in the inoculated zone, to determine the percentage of fruit affected for each treatment and fungus inoculated, and expressing this effectiveness as a percentage of reduction of the affected fruit.

Geotrichum candidum = experiment: as above; format: in vivo
Procedure: as §1

[5] = tested on: Colletotrichum sp. (CPC-PT-5); experiment: agar diffusion test, wild fungi isolated from crown rot in bananas; format: cell-based; details: incl. 6 mm disc
Procedure: (§2) A. The “in vitro” antimicrobial activity of these compounds was tested (referenced as PTS and PTSO), at different doses, as well as their activity against a broad spectrum of bacteria, fungi and yeasts. The tests were conducted against standard micro-organisms (reference strains from different collections of standard crops) and also against wild strains isolated from different types of rot and fruits and other affected crops.
(§3) These tests of antimicrobial capacity were conducted according to the agar diffusion technique, using cellulose discs 6 mm in diameter, impregnated with the different doses under study. For the assessment of the anti-fungal capability, the medium Sabouraud glucosate agar 2% was used, inoculated with suspensions of spores prepared to a concentration on the order of 10^8 cells/ml. To assess the antibacterial capability, the cultivation medium Müller-Hinton agar was used, inoculated with suspensions of bacteria prepared to a concentration of 10^6 cells/ml.
(§4) Once the plates were inoculated, the discs previously impregnated with the different test doses of each of the compounds to be analyzed were put in place. The reading was taken after incubation of the plates by measuring the zone of inhibition that appeared, and the result was expressed in mm corresponding to the diameter of the halo that appeared (including the 6 mm of the cellulose disc).
(§5) Once the screening of the anti-microbial capability of the compounds claimed by the invention had been performed over a broad range of reference strains, their efficiency was corroborated against wild strains, which we isolated as specific pathogens that affect different crops of different geographic origins.

Fusarium sp. (CPC-PT-9) = experiment: as above; format: cell-based; details: incl. 6 mm disc
Procedure: as §2, §3, §4, §5

[6] = tested on: Unidentified yeast (CPC-PT-10); experiment: as above; format: cell-based; details: incl. 6 mm disc
Procedure: as §2, §3, §4, §5

Fusarium sp. (CPC-PT-7) = experiment: as above; format: cell-based; details: incl. 6 mm disc
Procedure: as §2, §3, §4, §5

Fusarium spp. = experiment: field tests on affected asparagus, Fusarium spp. in roots; format: in vivo; details: 60 days after application, compared to untreated control
Procedure: The treatment doses used were 250, 500 and 1000 ppm of both active principles (PT and PTSO), and the initial incidence of the pathogen was compared with its presence 60 days after its application.
To analyze the growth of the crops infected by Fusarium spp. after the treatments, root and soil samples were taken and tests were performed in the laboratory to investigate the incidence of the pathogen in the roots and soil. The cultivation media used were potato dextrose agar and rose bengal agar (to prevent the invasive character of the Mucoralean fungi).
The soil analysis was conducted by sequential dilutions of the soils in physiological serum with a subsequent sowing in the above mentioned media. The analysis of the roots was performed after dissection of the infected tissues, which were deposited in triplicate on filter paper located above both media, and their evolution over time was studied.
The data are expressed as a percentage of elimination and reduction as a function of the treatment dose compared to the untreated control samples.

[7] = 1600 ppm, 4 days of treatment at 20° C.
[8] = 1600 ppm, 7 days of treatment at 20° C.
[9] = 2500 ppm, 4 days of treatment at 20° C.
[10] = 2500 ppm, 7 days of treatment at 20° C.

## CCCS[S+]([O-])CCC (stereo not drawn) [PTS, Propyl Propyl Thiosulfinate]
Botrytis cinerea; 2000 ppm
  % of fruit affected: 3.8%
Botrytis cinerea; 2000 ppm, 150 fruits
  No. of fruits affected: 6
Botrytis cinerea; 2400 ppm
  % of fruit affected: 3.1%
Botrytis cinerea; 2400 ppm, 148 fruits
  No. of fruits affected: 5
Botrytis cinerea; 4800 ppm
  % of fruit affected: 3.1%
Botrytis cinerea; 4800 ppm, 141 fruits
  No. of fruits affected: 4
Botrytis cinerea; 9600 ppm
  % of fruit affected: 2%
Botrytis cinerea; 9600 ppm, 114 fruits
  No. of fruits affected: 2
[1]; 25 ppm
  diameter of the microbial inhibition halo: 10 mm
[1]; 50 ppm
  diameter of the microbial inhibition halo: 13 mm
[1]; 100 ppm
  diameter of the microbial inhibition halo: 19 mm
[2]; 25 ppm
  diameter of the microbial inhibition halo: 23 mm
[2]; 50 ppm
  diameter of the microbial inhibition halo: 27 mm
[2]; 100 ppm
  diameter of the microbial inhibition halo: 34 mm
[3]; 30 ppm
  diameter of the microbial inhibition halo: 12 mm
[3]; 60 ppm
  diameter of the microbial inhibition halo: 15 mm
[3]; 125 ppm
  diameter of the microbial inhibition halo: 20 mm
[3]; 250 ppm
  diameter of the microbial inhibition halo: 33 mm
[3]; 500 ppm
  diameter of the microbial inhibition halo: 40 mm
[3]; 1000 ppm
  diameter of the microbial inhibition halo: 41 mm
[4]; [7]
  % Reduction: 60%
  % of fruit affected: 18%
[4]; [8]
  % Reduction: 7%
  % of fruit affected: 93%
[4]; [9]
  % Reduction: 70%
  % of fruit affected: 8%
[4]; [10]
  % Reduction: 20%
  % of fruit affected: 80%
Geotrichum candidum; 1600 ppm, 7 days at 20° C.
  % Reduction: 95%
  % of fruit affected: 5%
Geotrichum candidum; 1600 ppm, 14 days at 20° C.
  % Reduction: 37%
  % of fruit affected: 63%
Geotrichum candidum; 2500 ppm, 7 days at 20° C.
  % Reduction: 100%
  % of fruit affected: 0%
Geotrichum candidum; 2500 ppm, 14 days at 20° C.
  % Reduction: 37%
  % of fruit affected: 63%
[5]; 30 ppm
  diameter of the microbial inhibition halo: 10 mm
[5]; 60 ppm
  diameter of the microbial inhibition halo: 20 mm
[5]; 125 ppm
  diameter of the microbial inhibition halo: 30 mm
[5]; 250 ppm
  diameter of the microbial inhibition halo: 40 mm
[5]; 500 ppm
  diameter of the microbial inhibition halo: 43 mm
[5]; 1000 ppm
  diameter of the microbial inhibition halo: 43 mm
Fusarium sp. (CPC-PT-9); 30 ppm
  diameter of the microbial inhibition halo: 0 mm
Fusarium sp. (CPC-PT-9); 60 ppm
  diameter of the microbial inhibition halo: 0 mm
Fusarium sp. (CPC-PT-9); 125 ppm
  diameter of the microbial inhibition halo: 0 mm
Fusarium sp. (CPC-PT-9); 250 ppm
  diameter of the microbial inhibition halo: 15 mm
Fusarium sp. (CPC-PT-9); 500 ppm
  diameter of the microbial inhibition halo: 30 mm
Fusarium sp. (CPC-PT-9); 1000 ppm
  diameter of the microbial inhibition halo: 33 mm
[6]; 30 ppm
  diameter of the microbial inhibition halo: 40 mm
[6]; 60 ppm
  diameter of the microbial inhibition halo: 45 mm
[6]; 125 ppm
  diameter of the microbial inhibition halo: 50 mm
[6]; 250 ppm
  diameter of the microbial inhibition halo: 55 mm
[6]; 500 ppm
  diameter of the microbial inhibition halo: 63 mm
[6]; 1000 ppm
  diameter of the microbial inhibition halo: 65 mm
Fusarium sp. (CPC-PT-7); 30 ppm
  diameter of the microbial inhibition halo: 0 mm
Fusarium sp. (CPC-PT-7); 60 ppm
  diameter of the microbial inhibition halo: 0 mm
Fusarium sp. (CPC-PT-7); 125 ppm
  diameter of the microbial inhibition halo: 15 mm
Fusarium sp. (CPC-PT-7); 250 ppm
  diameter of the microbial inhibition halo: 25 mm
Fusarium sp. (CPC-PT-7); 500 ppm
  diameter of the microbial inhibition halo: 25 mm
Fusarium sp. (CPC-PT-7); 1000 ppm
  diameter of the microbial inhibition halo: 35 mm
Fusarium spp.; 250 ppm
  % Reduction: 60%
  % elimination: 0%
Fusarium spp.; 500 ppm
  % Reduction: 14%
  % elimination: 57%
Fusarium spp.; 1000 ppm
  % Reduction: 13%
  % elimination: 58%

## CCCSS(=O)(=O)CCC [PTSO, Propyl Propyl Thiosulfonate]
Fusarium spp.; 250 ppm
  % Reduction: 25%
  % elimination: 33%
Fusarium spp.; 500 ppm
  % Reduction: 14%
  % elimination: 86%
Fusarium spp.; 1000 ppm
  % Reduction: 43%
  % elimination: 57%
